Experimental data published in publication PMC11721541 (Journal of Lipid Research, 2024).

How the values were obtained:
human lipin 1γ = target: T1, human lipin 1γ (Homo sapiens, UniProt Q14693); assay: PAP assay, human lipin 1γ; format: biochemical; conditions: unphosphorylated, from E. coli; PA 2.4 mol %
T1 construct: His6 (C); made in house; host or cells: E. coli Rosetta2(DE3)pLysS, plasmid pGH321 (pET-28b(+) derivative)
T1 sequence (Q14693 1-916 isoform Q14693-4): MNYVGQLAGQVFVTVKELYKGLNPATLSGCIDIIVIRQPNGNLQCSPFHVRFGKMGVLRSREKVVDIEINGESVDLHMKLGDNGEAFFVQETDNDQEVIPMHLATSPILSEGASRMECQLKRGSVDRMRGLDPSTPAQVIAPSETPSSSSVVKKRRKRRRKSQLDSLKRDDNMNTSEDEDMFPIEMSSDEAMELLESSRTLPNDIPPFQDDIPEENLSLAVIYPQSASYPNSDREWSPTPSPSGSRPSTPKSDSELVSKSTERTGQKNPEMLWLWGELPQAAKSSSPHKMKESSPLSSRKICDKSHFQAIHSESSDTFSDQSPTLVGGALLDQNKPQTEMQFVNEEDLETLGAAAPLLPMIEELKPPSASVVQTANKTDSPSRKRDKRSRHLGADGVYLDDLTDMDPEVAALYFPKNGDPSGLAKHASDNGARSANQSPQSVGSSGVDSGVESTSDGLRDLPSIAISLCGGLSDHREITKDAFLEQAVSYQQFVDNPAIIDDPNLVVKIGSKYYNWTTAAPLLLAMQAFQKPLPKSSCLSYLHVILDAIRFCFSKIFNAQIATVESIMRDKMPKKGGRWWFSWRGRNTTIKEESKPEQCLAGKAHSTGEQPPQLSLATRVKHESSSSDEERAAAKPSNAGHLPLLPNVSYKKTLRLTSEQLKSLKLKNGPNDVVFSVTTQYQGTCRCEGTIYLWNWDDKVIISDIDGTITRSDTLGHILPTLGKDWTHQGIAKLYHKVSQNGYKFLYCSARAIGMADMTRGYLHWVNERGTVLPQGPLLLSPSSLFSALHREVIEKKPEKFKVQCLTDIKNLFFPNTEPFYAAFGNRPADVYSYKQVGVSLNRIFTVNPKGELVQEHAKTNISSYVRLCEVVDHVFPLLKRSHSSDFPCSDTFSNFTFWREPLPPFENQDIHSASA
Protocol: (§1) PA dissolved in chloroform was dried in vacuo for 1 h. The dried PA was suspended in Triton X-100 to prepare Triton X-100/PA-mixed micelles ([88]). The mole percent of PA in the Triton X-100/PA-mixed micelle was calculated using the following formula: mol %PA = 100 × [PA (molar)]/([PA (molar)] + [Triton X-100 (molar)]). The total PA concentration in the Triton X-100/PA-mixed micelles was kept below 15 mol% to ensure that the structure of the PA-mixed micelles was similar to that of pure Triton X-100 micelles ([89], [90]).
(§2) PAP activity was measured at 30°C for 20 min by following the release of water-soluble ^32Pi from chloroform-soluble [^32P]PA (5,000–10,000 cpm/nmol) ([1], [88]). [^32P]PA was enzymatically synthesized from 1, 2-dioleoyl DAG and [γ-^32P]ATP with E. coli DAG kinase ([88]). Pah1-CC PAP activity was measured by following the formation of Pi from unlabeled PA using the malachite green-molybdate reagent ([4], [91]). The reaction mixture in a total volume of 100 μl contained 50 mM Tris-HCl (pH 7.5), 1 mM MgCl2, 10 mM 2-mercaptoethanol, 0.2 mM PA, 2 mM Triton X-100, and 50 ng purified enzyme. The enzyme assays were conducted in triplicate; the reactions were linear with time and protein concentration.
(§3) Each of the isoforms was heterologously expressed in E. coli, which allowed for their isolation in the unphosphorylated state ([4]).

human lipin 1β = target: T2, human lipin 1β (Homo sapiens, UniProt Q14693); assay: PAP assay, human lipin 1β; format: biochemical; conditions: unphosphorylated, from E. coli; PA 2.4 mol %
T2 construct: His6 (C); made in house; host or cells: E. coli Rosetta2(DE3)pLysS, plasmid pGH327 (pET-28b(+) derivative)
T2 sequence (Q14693 1-926 isoform Q14693-3): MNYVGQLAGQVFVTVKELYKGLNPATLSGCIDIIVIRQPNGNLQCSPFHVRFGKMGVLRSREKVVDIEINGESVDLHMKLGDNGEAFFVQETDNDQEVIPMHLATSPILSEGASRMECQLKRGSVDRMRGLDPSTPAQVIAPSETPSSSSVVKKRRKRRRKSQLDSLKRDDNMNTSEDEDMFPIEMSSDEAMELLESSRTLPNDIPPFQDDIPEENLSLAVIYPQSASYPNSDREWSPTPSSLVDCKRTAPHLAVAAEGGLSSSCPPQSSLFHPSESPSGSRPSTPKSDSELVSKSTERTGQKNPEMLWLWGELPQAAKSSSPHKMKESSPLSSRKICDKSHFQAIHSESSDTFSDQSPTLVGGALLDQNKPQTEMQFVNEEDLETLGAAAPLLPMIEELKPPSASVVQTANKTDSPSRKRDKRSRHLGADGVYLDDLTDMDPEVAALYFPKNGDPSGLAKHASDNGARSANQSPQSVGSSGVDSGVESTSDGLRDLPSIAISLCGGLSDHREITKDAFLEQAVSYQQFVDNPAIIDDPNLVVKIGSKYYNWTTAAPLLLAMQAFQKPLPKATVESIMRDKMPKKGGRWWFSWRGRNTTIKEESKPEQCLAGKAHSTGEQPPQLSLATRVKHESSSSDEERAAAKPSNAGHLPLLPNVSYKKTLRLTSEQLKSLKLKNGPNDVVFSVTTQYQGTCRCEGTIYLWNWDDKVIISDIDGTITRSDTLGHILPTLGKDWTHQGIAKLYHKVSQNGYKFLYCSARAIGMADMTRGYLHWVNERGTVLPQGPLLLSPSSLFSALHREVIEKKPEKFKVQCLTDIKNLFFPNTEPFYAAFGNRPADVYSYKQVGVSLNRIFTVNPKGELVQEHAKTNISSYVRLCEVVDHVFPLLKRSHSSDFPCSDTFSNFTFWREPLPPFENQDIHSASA
Protocol: as §1, §2, §3

human lipin 1α = target: T3, human lipin 1α (Homo sapiens, UniProt Q14693); assay: PAP assay, human lipin 1α; format: biochemical; conditions: for IC50: unphosphorylated, from E. coli, PA 2.4 mol %
T3 construct: His6 (C); made in house; host or cells: E. coli Rosetta2(DE3)pLysS, plasmid pGH322 (pET-28b(+) derivative)
T3 sequence (Q14693 1-890): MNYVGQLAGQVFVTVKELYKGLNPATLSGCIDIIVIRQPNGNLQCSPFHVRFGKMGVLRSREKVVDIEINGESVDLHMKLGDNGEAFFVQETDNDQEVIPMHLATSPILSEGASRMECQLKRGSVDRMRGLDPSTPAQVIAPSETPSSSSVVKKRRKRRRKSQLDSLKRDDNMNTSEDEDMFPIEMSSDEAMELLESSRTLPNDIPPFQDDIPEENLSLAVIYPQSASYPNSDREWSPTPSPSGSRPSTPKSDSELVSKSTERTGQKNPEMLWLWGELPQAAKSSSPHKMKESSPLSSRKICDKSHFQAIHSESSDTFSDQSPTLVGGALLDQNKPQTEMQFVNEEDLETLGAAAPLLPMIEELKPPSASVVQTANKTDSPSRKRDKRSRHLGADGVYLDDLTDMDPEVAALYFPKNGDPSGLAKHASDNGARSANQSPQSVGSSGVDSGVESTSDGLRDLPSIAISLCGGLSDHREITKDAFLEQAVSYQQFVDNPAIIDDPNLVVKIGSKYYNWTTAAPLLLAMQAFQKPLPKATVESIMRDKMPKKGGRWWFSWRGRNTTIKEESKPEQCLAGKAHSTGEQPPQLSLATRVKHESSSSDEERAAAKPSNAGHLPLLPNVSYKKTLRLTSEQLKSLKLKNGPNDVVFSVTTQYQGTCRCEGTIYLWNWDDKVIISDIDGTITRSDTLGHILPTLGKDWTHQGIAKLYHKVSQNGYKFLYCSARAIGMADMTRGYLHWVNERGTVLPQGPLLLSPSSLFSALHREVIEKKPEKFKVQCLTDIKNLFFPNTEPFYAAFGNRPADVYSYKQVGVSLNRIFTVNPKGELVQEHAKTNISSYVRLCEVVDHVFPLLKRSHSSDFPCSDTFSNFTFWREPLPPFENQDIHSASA
Protocol: as §1, §2, §3

pah1Δ mutant cells = format: cell-based, Saccharomyces cerevisiae
Protocol: (§4) The cell density was determined by measurement of A600 nm after a 48-h static incubation using a SpectraMax M2e microplate reader (Molecular Devices). […] The A600 nm readings were taken after 4 days of incubation.
For this experiment, we cultured the mutant in SC-0.2% glucose medium because of its growth defect in RPMI-0.2% glucose.
We reasoned that an overexpressed level of PAP activity would more readily rescue the inhibitory effect of the drug on the mutant growth.

[1] = test system: pah1Δ cells (SS1026) overexpressing Pah1 or Pah1-CC; format: cell-based, Saccharomyces cerevisiae
Protocol: as §4

HepG2 cells = assay: Lipid analysis (TLC, charring) in HepG2 cells; format: cell-based, human; conditions: 10 μM, 18 h
[2] = test system: WT S. cerevisiae cells (RS453); assay: Lipid analysis ([2-14C]acetate labeling, TLC) in S. cerevisiae; conditions: 163 μM, 12 h, SC-0.2% glucose
From the text: Lipids were extracted ([97]) from ∼ 8 × 10^7 cells and analyzed by one-dimensional TLC with silica gel 60 plates using the solvent system containing hexane/diethyl ether/glacial acetic acid (40:10:1, v/v) ([98]). Radiolabeled lipids were visualized by phosphorimaging with a Storm 860 Molecular Imager (GE Healthcare) and quantified with ImageQuant software using a standard curve of [2–^14C]acetate. The amounts of TAG and phospholipids were normalized to total lipids on TLC plates.
The radiolabeling was performed in the SC medium owing to the difficulty of [2–^14C]acetate incorporation into cells grown in the RPMI medium.

| SMILES | IC50 (human lipin 1γ) [µM] | IC50 (human lipin 1β) [µM] | IC50 (human lipin 1α) [µM] | effect on growth of pah1Δ mutant (pah1Δ mutant cells) | effect on growth of cells expressing Pah1 [1] | reduction in the TAG level (HepG2 cells) [fold] | growth of cells during the incubation period (HepG2 cells; vs DMSO vehicle) | decrease of TAG content [2] [fold] | increase of phospholipid content [2] [fold] | IC50 values for lipin 1 isoforms lower than those of propranolol (human lipin 1α; lipin 1 α, β and γ isoforms together) [fold] |
| --- | --- | --- | --- | --- | --- | --- | --- | --- | --- | --- |
| CC(C)NCC(O)COc1cccc2ccccc12 (stereo not shown) [propranolol] | 227 | 271 | 226 |  |  |  |  |  |  |  |
| CN[C@H]1CC[C@@H](c2ccc(Cl)c(Cl)c2)c2ccccc21 [sertraline] | 143 | 108 | 103 | severe reduction in growth | mild inhibition | 2 | did not differ from that of the control | 2.2 | 1.2 | ~2 |
